The subject of assay [1] is BCL-2 G101V knock-in cell line H96 (derive from RS4;11). Put plainly: Bcl 2-G101V Knock-In RS4;11 Cell Proliferation Assay. The conditions noted are these: Homo sapiens, RS4-11, 48 h, RS4;11 Bcl-2 G101V knock-in clone H96, 48 hrs, CellTiter-GLO, read-out: Cellular proliferation assay (IC50, nM) RS4. It counts as cell-based. The method, boiled down: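 CellTiter-Glo luminescence after 48 h, 37 °C compound treatment (10 concentrations, maximum 1 μM or 10 μM) gave mean IC50 values. Cells were 50,000 per well of H96, a BCL2-G101V knock-in single clone derived from RS4;11 by Cas9 editing.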
Background: ATP-based viability assays read luminescence as a measure of living cells.

Assay [2] deals with Recombinant human Bcl-2 protein (Homo sapiens (Human), UniProt P10415). The assay is described as follows: Bcl-2 TR-FRET Assay. The format is binding. In a few lines: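 TR-FRET read (337 nm excitation, 520/490 nm emission) after 1 h with 0.5 nM FITC-labeled Bak peptide and Tb-cryptate anti-6His antibody. Bcl-2 at 0.05 nM had been pre-incubated 0.5 h with compound. IC50 fitted by four-parameter logistic equation.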
For orientation: TR-FRET usually uses a lanthanide donor and a delayed reading to cut background.

Assay [3] relates to recombinant human Bcl-2-G101V protein. The assay is described as follows: Bcl-2-G101V TR-FRET Assay. It counts as binding. Particulars: ratio of biochemical IC50 Bcl-2 G101V / Bcl-2 WT. In a few lines:
(§1)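 IC50 values derive from four-parameter logistic fitting of percent inhibition data. That inhibition of ligand binding to Bcl-2-G101V is computed from the 490 nm/520 nm TR-FRET ratio under 337 nm excitation, over a rising compound concentration series.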

The target in assay [4] is recombinant human Bcl-2-G101V protein (Homo sapiens (Human), UniProt P10415, G101V). The assay is described as follows: Bcl-2-G101V TR-FRET Assay. The format is binding. Particulars: Bcl-2 G101V mutant, TR-FRET; read-out: Biochemical assay (IC50, nM) Bcl-2 G101V. In a few lines: as §1

The results in this text go back to patent publication US20240376097A1, “BCL-2 Inhibitor” (BeiGene Ltd., priority 2020, published 2024).

Like-named read-outs stand apart in the source and are kept apart here.

For the compound `COc1cc(CN2CCN(C3CC4(C3)CN(c3ccc(C(=O)NS(=O)(=O)c5ccc(NC[C@H]6CC[C@](C)(O)CC6)c([N+](=O)[O-])c5)c(Oc5cnc6[nH]cc(F)c6c5)c3)C4)[C@H](c3ccccc3C(C)C)C2)ccc1N1CCOCC1` [Example 361, 2-((3-fluoro-1H-pyrrolo[2,3-b]pyridin-5-yl)oxy)-N-((4-((((1r,4r)-4-hydroxy-4-methylcyclohexyl)methyl)amino)-3-nitrophenyl)sulfonyl)-4-(6-((R)-2-(2-isopropylphenyl)-4-(3-methoxy-4-morpholinobenzyl)piperazin-1-yl)-2-azaspiro[3.3]heptan-2-yl) benzamide], the IC50 was found to be 0.13 nM in assay [1]; 0.051 nM in assay [2] (Bcl-2 wild type, TR-FRET, read-out: Biochemical assay (IC50, nM) Bcl-2 WT); 0.048 nM in assay [2] (wild type Bcl-2, unit inferred, read-out: Bcl-2 WT); 0.16 nM in assay [4]. The “Ratio of Bcl-2 G101V/WT” value in assay [3] was determined as 3.1.
